Experimental data from patent US5919668A, “Non-reducing saccharide and its production and use” (Kabushiki Kaisha Hayashibara Seibutsu Kagaku Kenkyujo, priority 1994, dated 1999).
Entries after “also recorded” stand apart in the source; their conditions may differ.

Legend:
[1] = Reducing power by the Somogyi-Nelson method, represented in terms of DE; format: physicochemical; conditions: high-purity preparations, Somogyi-Nelson method
Experimental: The high-purity preparations of the newly formed saccharides were determined for reducing power by the Somogyi-Nelson method and represented in terms of DE.

[2] = Maillard reaction (coloration with glycine, absorbance at 480 nm); format: physicochemical; conditions: for Coloration degree at 480 nm: 10% saccharide, 1% glycine, 50 mM phosphate buffer pH7.0, 100° C., 90 minutes, 1 cm cuvette; for Coloration degree relative to maltooligosaccharides as material: 480 nm, with glycine
Experimental: Solutions of 10% saccharide preparation PI, PII, PIII, PIV or PV prepared in Experiment 4 and 1% glycine in 50 mM phosphate buffer (pH7.0) were incubated at 100° C. for 90 minuets, cooled and determined in 1 cm cuvette for absorbance at 480 nm. As control, maltotriose, maltotetraose, maltopentaose, maltohexaose and maltoheptaose which were used as the starting materials were treated similarly as above and determined for absorbance at 480 nm.
10% High-purity trehalose preparation, purity of 99.5%, obtained by the method in Experiment 17 and 1% glycine in 50 mM phosphate buffer (pH7.0) was incubated at 100° C. for 90 minutes, cooled and measured in lcm cuvette for absorbance at 480 nm. As control, glucose and maltose were treated similarly as above and then measured for absorbance at 480 nm.

[3] = tested on: glucoamylase; test: Enzymatic hydrolysis by glucoamylase; format: biochemical; conditions: for Molar ratio (glucose/trehalose): degradation product by glucoamylase; for Glucose in degradation product by glucoamylase / Trehalose in degradation product by glucoamylase: pH4.5, 40° C., 6 hours
Experimental: Fifty milligrams of the non-reducing saccharide preparation PI, PII, PIII, PIV or PV prepared in Experiment 4 was dissolved in 1 ml of 50 mM acetate buffer (pH4.5), added with one unit of the glucoamylase commercialized by Seikagaku Corp., Tokyo, Japan, incubated at 40° C. for 6 hours for enzymatic hydrolysis and analyzed for degradation products on high-performance liquid chromatography, thus detecting glucose and trehalose as sole products. The noted glucose contents, trehalose contents and their molar ratios were as shown in Table 5.

[4] = tested on: beta-amylase; test: Degradation by beta-amylase; format: biochemical
Description: Considering the reaction characteristics of glucoamylase, these saccharides very likely bear structures where glucose molecule(s) is bound to trehalose molecule via alpha1,4 or alpha-1,6 linkage: Saccharide PI is a non-reducing saccharide with a glucose polymerization degree of 3 where one glucose molecule is bound to one trehalose molecule; saccharide PII, another non-reducing saccharide with a glucose polymerization degree of 4 where two glucose molecules are bound to one trehalose molecule; saccharide PIII, still another non-reducing saccharide with a glucose polymerization degree of 5 where three glucose molecules are bound to one trehalose molecule; saccharide PIV, still another non-reducing saccharide with a glucose polymerization degree of 6 where four glucose molecules are bound to one trehalose molecule; and saccharide PV, still another non-reducing saccharide with a polymerization degree of 7 where five glucose molecules are bound to one trehalose molecule.

[5] = tested on: pig pancreas alpha-amylase; test: Degradation by pig pancreas alpha-amylase; format: biochemical; conditions: for G1 (glucose) in degradation product by alpha-amylase / G2 (maltose) in degradation product by alpha-amylase / G3 (maltotriose) in degradation product by alpha-amylase / PI in degradation product by alpha-amylase / PII in degradation product by alpha-amylase: pH6.9, 37° C., 18 hours
Experimental: (§1) The non-reducing saccharide preparations PI, PII, PIII, PIV and PV as substrates prepared in Experiment 4 were subjected to pig pancreas alpha-amylase, rice alpha-glucosidase and acetone-pulverized rat small intestine enzyme, all of which were products of Sigma Chemical Co., St Louis, Mo., USA, and the degradation products were analyzed on high-performance liquid chromatography for saccharide composition. The reaction by alpha-amylase was carried out by dissolving 10 mg of either substrate in 1 ml of 50 mM phosphate buffer (pH6.9), adding thereto one unit of alpha-amylase and incubating at 37° C. for 18 hours. The reaction by alpha-glucosidase was conducted similarly as in the case of alpha-amylase except that 50 mM acetate buffer (pH4.0) was used. In the case of acetone-pulverized rat small intestine enzyme, the reaction was conducted similarly as in the case of alpha-amylase except that 50 mM maleic acid buffer (pH6.0) was used.

[6] = tested on: rice alpha-glucosidase; test: Degradation by rice alpha-glucosidase; format: biochemical; conditions: for Glucose in degradation product by alpha-glucosidase / Others in degradation product by alpha-glucosidase / Trehalose in degradation product by alpha-glucosidase: pH4.0, 37° C., 18 hours
Experimental: as §1

[7] = tested on: acetone-pulverized rat small intestine enzyme; test: Degradation by acetone-pulverized rat small intestine enzyme; format: biochemical; conditions: for Glucose in degradation product by acetone-powdered rat small intestine enzyme / Others in degradation product by acetone-powdered rat small intestine enzyme / Trehalose in degradation product by acetone-powdered rat small intestine enzyme: pH6.0, 37° C., 18 hours
Experimental: as §1

[8] = tested on: pig kidney trehalase; test: Degradation by pig kidney trehalase; format: biochemical; conditions: trehalose, or trehalose formed from PI-PV; pH5.7, 37° C., 18 hours for the latter
Experimental: In order to purify trehalose from respective reaction products, they were decolored, deionized, concentrated and subjected to column fractionation on a strongly-acidic cation exchange of sodium form "XT-1016", followed by recovering high-purity fractions with trehalose contents of 97% or higher. The fractions were then concentrated to about 65% and allowed to standing at 25° C. for 2 days to crystallize out crystalline trehalose hydrate which was then separated and dried in vacuo to obtain a high-purity preparation with a trehalose content of 99% or higher. The yields against respective starting substrates on dry solid basis were as follows: from glycosyl trehalose, 9.5%; from maltosyl trehalose, 14.9%; from maltotriosyl trehalose, 16.0%; from maltotetraosyl trehalose, 18.5%; and from maltopentaosyl trehalose, 17.7%. […] As evident from the above results, the saccharides formed by subjecting alpha-glycosyl trehaloses to the trehalose-releasing enzyme were identified to be trehalose.

| SMILES | DE of saccharide preparation [1] | Coloration degree relative to maltooligosaccharides as material [2] | Degradation by glucoamylase (in words) [3] | Molar ratio (glucose/trehalose) [3] | Glucose in degradation product by glucoamylase [3] | Trehalose in degradation product by glucoamylase [3] | Degradation by beta-amylase (in words) [4] | Degradation by alpha-amylase (in words) [5] | G1 (glucose) in degradation product by alpha-amylase [5] | G2 (maltose) in degradation product by alpha-amylase [5] | G3 (maltotriose) in degradation product by alpha-amylase [5] | PI in degradation product by alpha-amylase [5] | PII in degradation product by alpha-amylase [5] | Degradation by alpha-glucosidase (in words) [6] | Glucose in degradation product by alpha-glucosidase [6] | Others in degradation product by alpha-glucosidase [6] | Trehalose in degradation product by alpha-glucosidase [6] | Degradation by acetone-pulverized rat small intestine enzyme (in words) [7] | Glucose in degradation product by acetone-powdered rat small intestine enzyme [7] | Others in degradation product by acetone-powdered rat small intestine enzyme [7] | further results |
| --- | --- | --- | --- | --- | --- | --- | --- | --- | --- | --- | --- | --- | --- | --- | --- | --- | --- | --- | --- | --- | --- |
| OC[C@H]1O[C@H](O[C@H]2O[C@H](CO)[C@@H](O[C@H]3O[C@H](CO)[C@@H](O[C@H]4O[C@H](CO)[C@@H](O[C@H]5O[C@H](CO)[C@@H](O)[C@H](O)[C@H]5O)[C@H](O)[C@H]4O)[C@H](O)[C@H]3O)[C@H](O)[C@H]2O)[C@H](O)[C@@H](O)[C@@H]1O [PIII, alpha-maltotriosyl trehalose] | 0.10 | 3-6% | three glucose molecules and one trehalose molecule | 3.02 | 61.4% | 38.6% | degraded into one maltose molecule and one saccharide PI molecule | degraded by alpha-amylase into smaller oligosaccharides | 1.2% | 33.0% | 0% | 61.0% | 4.8% | degradable | 61.7% | 0.2% | 38.1% | degradable | 62.0% | 0.4% | Coloration degree at 480 nm [2]: 0.012; Trehalose in degradation product by acetone-powdered rat small intestine enzyme [7]: 37.6%; Degradation by pig kidney trehalase (in words) [8]: degradable into glucose by the trehalase |
| OC[C@H]1O[C@H](O[C@H]2O[C@H](CO)[C@@H](O[C@H]3O[C@H](CO)[C@@H](O[C@H]4O[C@H](CO)[C@@H](O)[C@H](O)[C@H]4O)[C@H](O)[C@H]3O)[C@H](O)[C@H]2O)[C@H](O)[C@@H](O)[C@@H]1O [PII, alpha-maltosyl trehalose] | 0.35 | 3-6% | two glucose molecules and one trehalose molecule; also recorded: one trehalose molecule and two glucose molecules | 2.06 | 52.0% | 48.0% | not degraded | hardly degraded by alpha-amylase | 0% | 0.8% | 0.4% | 0% | 98.8% | degradable | 52.1% | 0.3% | 47.6% | degradable | 52.5% | 0.4% | Coloration degree at 480 nm [2]: 0.018; Trehalose in degradation product by acetone-powdered rat small intestine enzyme [7]: 47.1%; Degradation by pig kidney trehalase (in words) [8]: degradable into glucose by the trehalase |
| OC[C@H]1O[C@H](O[C@H]2O[C@H](CO)[C@@H](O[C@H]3O[C@H](CO)[C@@H](O[C@H]4O[C@H](CO)[C@@H](O[C@H]5O[C@H](CO)[C@@H](O[C@H]6O[C@H](CO)[C@@H](O[C@H]7O[C@H](CO)[C@@H](O)[C@H](O)[C@H]7O)[C@H](O)[C@H]6O)[C@H](O)[C@H]5O)[C@H](O)[C@H]4O)[C@H](O)[C@H]3O)[C@H](O)[C@H]2O)[C@H](O)[C@@H](O)[C@@H]1O [PV, alpha-maltopentaosyl trehalose] | 0.23 | 3-6% | five glucose molecules and one trehalose molecule | 5.11 | 72.9% | 27.1% | two maltose molecules and one saccharide PI molecule | degraded by alpha-amylase into smaller oligosaccharides; also recorded: yields non-reducing saccharide PII and maltotriose as predominant products | 1.0% | 8.6% | 35.3% | 10.2% | 44.9% | degradable | 71.4% | 0.3% | 28.3% | degradable | 73.4% | 0.1% | Trehalose in degradation product by acetone-powdered rat small intestine enzyme [7]: 26.5%; Degradation by pig kidney trehalase (in words) [8]: degradable into glucose by the trehalase |
| OC[C@H]1O[C@H](O[C@H]2O[C@H](CO)[C@@H](O[C@H]3O[C@H](CO)[C@@H](O[C@H]4O[C@H](CO)[C@@H](O[C@H]5O[C@H](CO)[C@@H](O[C@H]6O[C@H](CO)[C@@H](O)[C@H](O)[C@H]6O)[C@H](O)[C@H]5O)[C@H](O)[C@H]4O)[C@H](O)[C@H]3O)[C@H](O)[C@H]2O)[C@H](O)[C@@H](O)[C@@H]1O [PIV, alpha-maltotetraosyl trehalose] | 0.27 | 3-6% | four glucose molecules and one trehalose molecule | 4.09 | 68.3% | 31.7% | one maltose molecules and one saccharide PII molecule | degraded by alpha-amylase into smaller oligosaccharides | 1.6% | 7.5% | 40.4% | 47.2% | 3.3% | degradable | 69.5% | 0.3% | 30.2% | degradable | 68.8% | 0.4% | Trehalose in degradation product by acetone-powdered rat small intestine enzyme [7]: 30.8%; Degradation by pig kidney trehalase (in words) [8]: degradable into glucose by the trehalase |
